Measurements as given in US7820714B2, “Siglec inhibitors” (priority 2001, dated 2010).
Where two headings read alike, the source gives them in different places.

Legend:
[1] = molecular target: Siglec-1 (sialoadhesin) (Mus musculus, UniProt Q62230); assay: Hapten inhibition assay, Siglec-1 (sialoadhesin); type: binding; conditions: for Siglec-1 (sialoadhesin) rIP: quotient IC50 reference compound / IC50 compound; for Siglec-1 (sialoadhesin) percentage in parentheses below the IC50 bound: at the concentration of the IC50 bound, meaning not defined in the patent
Method: Preferably, the inhibition can be determined by a Hapten inhibition test. […] After overnight incubation at 4° C. the unbound complexes are removed by washing the cells and the bound radioactivity is determined. From the data obtained in this way, the concentrations are found which lead to 50% inhibition of the binding (IC50 values) (5, 6). Specially preferred during the Hapten inhibition test was 10 μl of the complex solution with an activity of 10^3 Bq ^125I mixed with the same volume of a solution of the substance to be investigated (concentrated three times) and incubated at 4° C. for one hour. Then followed the addition of 10 μl of a suspension of target cells, preferably 0.25 to 0.5% of human erythrocytes and incubation overnight at 4° C. The unbound radioactivity is removed by washing the cells five times with 200 μl of washing buffer, preferably phosphate-buffered saline with 0.1% (W/V) bovine serum albumin, and the cell-bound activity is determined with a γ-counter. […] The inhibition is determined in that the value without inhibitor is set to 0% and that with the sialidase-treated cells is set equal to 100%.
The IC50 value is the siglec inhibitor concentration which leads to 50% inhibition in the binding in the Hapten inhibition assay.

[2] = molecular target: T1, Siglec-4a (MAG) (UniProt P20917); assay: Hapten inhibition assay, Siglec-4a (MAG); conditions: for Siglec-4a (MAG) rIP: quotient IC50 reference compound / IC50 compound; for IC50: read-out: Siglec-4a (MAG) IC50; for Siglec-4a (MAG) percentage in parentheses below the IC50 bound: at the concentration of the IC50 bound, meaning not defined in the patent
T1 sequence (P20917 1-627): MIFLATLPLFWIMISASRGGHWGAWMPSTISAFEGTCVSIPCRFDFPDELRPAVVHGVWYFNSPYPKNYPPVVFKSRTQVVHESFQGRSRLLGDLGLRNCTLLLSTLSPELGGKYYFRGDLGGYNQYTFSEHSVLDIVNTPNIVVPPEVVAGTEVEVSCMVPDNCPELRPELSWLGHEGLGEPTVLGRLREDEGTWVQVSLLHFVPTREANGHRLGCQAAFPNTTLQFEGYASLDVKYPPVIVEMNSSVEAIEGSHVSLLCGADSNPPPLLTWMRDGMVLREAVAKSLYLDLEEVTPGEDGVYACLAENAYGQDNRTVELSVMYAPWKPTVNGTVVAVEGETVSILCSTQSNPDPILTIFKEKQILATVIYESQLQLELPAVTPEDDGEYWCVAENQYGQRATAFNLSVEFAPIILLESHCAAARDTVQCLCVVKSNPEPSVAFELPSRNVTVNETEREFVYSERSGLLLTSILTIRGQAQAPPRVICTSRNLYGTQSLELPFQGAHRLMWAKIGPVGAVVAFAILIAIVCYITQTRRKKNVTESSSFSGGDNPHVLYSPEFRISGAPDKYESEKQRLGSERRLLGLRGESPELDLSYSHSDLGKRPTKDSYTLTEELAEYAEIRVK
Method: Preferably, the inhibition can be determined by a Hapten inhibition test. […] After overnight incubation at 4° C. the unbound complexes are removed by washing the cells and the bound radioactivity is determined. […] Then followed the addition of 10 μl of a suspension of target cells, preferably 0.25 to 0.5% of human erythrocytes and incubation overnight at 4° C. The unbound radioactivity is removed by washing the cells five times with 200 μl of washing buffer, preferably phosphate-buffered saline with 0.1% (W/V) bovine serum albumin, and the cell-bound activity is determined with a γ-counter. […] The inhibition is determined in that the value without inhibitor is set to 0% and that with the sialidase-treated cells is set equal to 100%.

Sequence of Siglec-1 (sialoadhesin) (Q62230 20-136 limits assumed): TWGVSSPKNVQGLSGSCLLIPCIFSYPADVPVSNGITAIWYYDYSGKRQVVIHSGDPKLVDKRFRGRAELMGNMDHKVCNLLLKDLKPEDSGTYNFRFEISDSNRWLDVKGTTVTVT

Compound	Siglec-1 (sialoadhesin) rIP [1]	IC50 ([1]; unit inferred) [mM]	Siglec-4a (MAG) rIP [2]	IC50 ([2]; unit inferred) [mM]	Siglec-1 (sialoadhesin) percentage in parentheses below the IC50 bound [1]	IC50 ([1]; bounds given in mM) [mM]	Siglec-4a (MAG) percentage in parentheses below the IC50 bound [2]	IC50 ([2]; bounds given in mM) [mM]
CC(=O)N[C@H]1[C@H]([C@H](O)[C@H](O)CO)O[C@@](SCc2ccccc2)(C(=O)O)C[C@@H]1O [Benzylthio-α-Neu5Ac]	4.1	0.28	3.0	2	–	–	–	–
CO[C@]1(C(=O)O)C[C@H](O)[C@@H](NC(C)=O)[C@H]([C@H](O)[C@H](O)CNC(=O)C(CNC(C)=O)NC(C)=O)O1 (stereo partly drawn) [Methyl-α-9-N-(2,3-diacetylaminopropanoyl)-amino-9-desoxy-Neu5Ac]	<<0.1	–	2.3	2.5	(80%)	> 10	–	–
CCCCCC(=O)NCC(O)C(O)C1OC(OC)(C(=O)O)CC(O)C1NC(C)=O (stereo not drawn) [Methyl-α-9-N-hexanoyl-amino-9-desoxy-Neu5Ac]	0.7	1.46	54	0.198	–	–	–	–
COC1(C(=O)O)CC(O)C(NC(C)=O)C(C(O)C(O)CNC(=O)C(N)=O)O1 (stereo not drawn) [Methyl-α-9-N-oxamido-amino-9-desoxy-Neu5Ac]	<0.2	> 4	–	–	(57%)	–	–	–
CO[C@]1(C(=O)O)C[C@H](O)[C@@H](NC(C)=O)[C@H]([C@H](O)[C@H](O)CNC(=O)CN)O1 [Methyl-α-9-N-aminoacetyl-9-desoxy-Neu5Ac]	0.3	7.48	3.3	3.4	–	–	–	–
CO[C@]1(C(=O)O)C[C@H](O)[C@@H](NC(C)=O)[C@H]([C@H](O)[C@H](O)C[S+](C)[O-])O1 (stereo partly drawn) [Methyl-α-9-methylsulphoxido-9-desoxy-Neu5Ac]	<0.05	2	8.5	0.697	–	–	–	–
COC1(C(=O)O)CC(O)C(NC(C)=O)C(C(O)C(O)CNC(=O)Cc2ccccc2)O1 (stereo not drawn) [Methyl-α-9-N-(phenylacetyl)-amino-9-desoxy-Neu5Ac]	–	–	7	0.367	–	–	–	–
COC1(C(=O)O)CC(O)C(NC(C)=O)C(C(O)C(O)CNC(=O)C(F)(F)F)O1 (stereo not drawn) [Methyl-α-9-N-trifluoracetyl-amino-9-desoxy-Neu5Ac]	0.5	4	10	0.55	–	–	–	–
CO[C@]1(C(=O)O)C[C@H](O)[C@@H](NC(C)=O)[C@H]([C@H](O)[C@H](O)CS(C)(=O)=O)O1 [Methyl-α-9-methylsulphonyl-9-desoxy-Neu5Ac]	<<0.05	2	0.1	3.4	–	–	–	–
CO[C@]1(C(=O)O)C[C@H](O)[C@@H](NC(C)=O)[C@H]([C@H](O)[C@H](O)CNC(C)=S)O1 [Methyl-α-9-N-thioacetyl-amino-9-desoxy-Neu5Ac]	0.3	6	6.5	0.733	–	–	–	–
CCOc1c(NC[C@@H](O)[C@@H](O)[C@@H]2O[C@@](OC)(C(=O)O)C[C@H](O)[C@H]2NC(C)=O)c(=O)c1=O [Methyl-α-9-N-(ethoxycyclobutendion)-amino-9-desoxy-Neu5Ac]	0.2	1.33	32	0.24	–	–	–	–
COC(=O)C1(OC)CC(O)C(NC(=O)CF)C(C(O)C(O)CO)O1 (stereo not drawn) [Methyl-α-methyl-α-5-N-fluoracetyl-neuraminic acid]	1.9	0.625	17.1	0.28	–	–	–	–
COC1(C(=O)O)CC(O)C(NC(C)=O)C(C(O)C(O)C(=O)O)O1 (stereo not drawn) [Methyl-α-9-carboxy-Neu5Ac]	<0.2	> 4	<<2.4	> 1	(63%)	–	(87%)	–
O=C(NC1C(O)CC(OCc2ccccc2)(C(=O)O)OC1C(O)C(O)CO)c1ccccc1 (stereo not drawn) [Benzyl-α-5-N-benzoyl-neuraminic acid]	<0.05	–	>0.27	–	(63%)	> 10	(27%)	< 10
CCCC(=O)N[C@H]1[C@H]([C@H](O)[C@H](O)CO)O[C@@](OCc2ccccc2)(C(=O)O)C[C@@H]1O [Benzyl-α-5-N-butanoyl-neuraminic acid]	2.7	0.25	1.5	5.3	–	–	–	–
COC1(C(=O)O)CC(O)C(NC(C)=O)C(C(O)C(O)CSC)O1 (stereo not drawn) [Methyl-α-9-methylthio-9-desoxy-Neu5Ac]	<<0.05	–	<<0.27	–	–	–	(116%)	> 10
COC1(C(=O)O)CC(O)C(NC(C)=O)C(C(O)C(O)CNC(=O)CC(C)=O)O1 (stereo not drawn) [Methyl-α-9-N-acetoacetyl-amino-9-desoxy-Neu5Ac]	<0.05	–	6.2	1.01	(62%)	> 10	–	–
COC1(C(=O)O)CC(O)C(NC(C)=O)C(C(O)C(O)CNC(=O)CNC(=O)CNC(=O)CN)O1 (stereo not drawn) [Methyl-α-9-N-(gly)3-amino-9-desoxy-Neu5Ac]	>>0.05	–	<<0.27	–	(11%)	< 10	(88%)	> 10
CCC(=O)NC1C(O)CC(OCc2ccccc2)(C(=O)O)OC1C(O)C(O)CO (stereo not drawn) [Benzyl-α-5-N-propanoyl-neuraminic acid]	3.4	0.215	4.8	2.5	–	–	–	–
Methyl-α-methyl-α-5-N-fluoracetylaminoacetyl-neuraminic acid	0.4	2.5	–	–	–	–	(90%)	> 10
CC(=O)N[C@H]1[C@H]([C@H](O)[C@H](O)CO)O[C@@](O[C@H]2[C@@H](O)[C@@H](CO)O[C@@H](O[C@H]3[C@H](O)[C@@H](O)C(O)O[C@@H]3CO)[C@@H]2O)(C(=O)O)C[C@@H]1O (some centres unmarked) [2,3-sialyllactose, reference compound]	2.4	0.385	7.3	1.6	–	–	–	–
COC1(C(=O)O)CC(O)C(NC(C)=O)C(C(O)C(O)CNS(=O)(=O)c2cccc3c(N(C)C)cccc23)O1 (stereo not drawn) [Methyl-α-9-N-dansyl-amino-9-desoxy-Neu5Ac]	2.6	0.26	19	0.317	–	–	–	–
COC1(C(=O)O)CC(O)C(NC(C)=O)C(C(O)C(O)CNC(=O)CNC(=O)CN)O1 (stereo not drawn) [Methyl-α-9-N-(gly)2-amino-9-desoxy-Neu5Ac]	<<0.1	–	0.9	5	(100%)	> 10	–	–
